Among the data in PubChem BioAssay AID330 (DTP/NCI, 2004) are T/C values, retold here.

The subject of this assay is P388 leukemia ip, CD2F1 mice, survival T/C. In words: NCI In Vivo Anticancer Drug Screen. Data for tumor model P388 Leukemia (intraperitoneal) in CD2F1 (CDF1) mice. The conditions noted are these: endpoint: median survival time, higher = longer survival. In a few lines: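 Mice carrying the transplanted tumor received test compound or vehicle. Survival was recorded in each group, and the value is the treated-group measurement divided by that of the vehicle-treated control group.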

The mark [1] stands for this setting: dose: 25.0 mg/kg/injection, schedule: Q01DX009 (ip), vehicle: saline with Tween-80.
Setting [2] is: dose: 50.0 mg/kg/injection, schedule: Q01DX009 (ip), vehicle: Klucel (hydroxypropylcellulose) (HPC).
Where [3] appears, read: dose: 50.0 mg/kg/injection, schedule: Q01DX009 (ip), vehicle: saline with Tween-80.
Where [4] appears, read: dose: 100.0 mg/kg/injection, schedule: Q01DX009 (ip), vehicle: Klucel (hydroxypropylcellulose) (HPC).
Where [5] appears, read: dose: 100.0 mg/kg/injection, schedule: Q01DX009 (ip), vehicle: saline with Tween-80.
The mark [6] stands for this setting: dose: 100.0 mg/kg/injection, schedule: Q04DX002 (ip), vehicle: saline with Tween-80.
The mark [7] stands for this setting: dose: 200.0 mg/kg/injection, schedule: Q04DX002 (ip), vehicle: saline with Tween-80.
Setting [8] is: dose: 50.0 mg/kg/injection, schedule: Q01DX001 (ip), vehicle: saline with Tween-80.
The mark [9] stands for this setting: dose: 100.0 mg/kg/injection, schedule: Q01DX001 (ip), vehicle: saline with Tween-80.
Where [10] appears, read: dose: 200.0 mg/kg/injection, schedule: Q01DX001 (ip), vehicle: saline with Tween-80.
The mark [11] stands for this setting: dose: 400.0 mg/kg/injection, schedule: Q01DX001 (ip), vehicle: saline with Tween-80.
The mark [12] stands for this setting: dose: 50.0 mg/kg/injection, schedule: Q01DX005 (ip), vehicle: saline with Tween-80.
Setting [13] is: dose: 100.0 mg/kg/injection, schedule: Q01DX005 (ip), vehicle: saline with Tween-80.
Setting [14] is: dose: 200.0 mg/kg/injection, schedule: Q01DX005 (ip), vehicle: saline with Tween-80.

Each structure is given as a SMILES string. Values joined by “and” are separate entries in the source; they are usually repeats but may differ in a detail not shown here. Identical values can stand only once. Inconclusive results and toxic doses are left out.

As for `ClC1C(Cl)C(Cl)C(Cl)C(Cl)C1Cl` (stereo unspecified), the T/C (dose: 12.5 mg/kg/injection, schedule: Q01DX009 (ip), vehicle: Klucel (hydroxypropylcellulose) (HPC)) is 104 % of control and 113 % of control; the T/C (dose: 25.0 mg/kg/injection, schedule: Q01DX009 (ip), vehicle: Klucel (hydroxypropylcellulose) (HPC)) was 104 % of control and 97 % of control; the T/C under setting [1] is 100 % of control and 104 % of control; the T/C under setting [2] was 105 % of control and 98 % of control; the T/C under setting [3] was 100 % of control and 108 % of control; the T/C (dose: 50.0 mg/kg/injection, schedule: Q04DX002 (ip), vehicle: saline with Tween-80) is 100 % of control. Moreover, the T/C by setting is: under setting [4], 89 % of control and 95 % of control; under setting [5], 100 % of control and 108 % of control; under setting [6], 100 % of control; (dose: 150.0 mg/kg/injection, schedule: Q01DX009 (ip), vehicle: Klucel (hydroxypropylcellulose) (HPC)) 99 % of control and 87 % of control; (dose: 200.0 mg/kg/injection, schedule: Q01DX009 (ip), vehicle: saline with Tween-80) 100 % of control and 110 % of control; under setting [7], 90 % of control. The T/C (dose: 400.0 mg/kg/injection, schedule: Q01DX009 (ip), vehicle: saline with Tween-80) is 101 % of control and 114 % of control.
`Cc1ccc2ccccc2c1N(CC(=O)O)S(=O)(=O)c1ccccc1` (tested in a mixture with another compound): the T/C by setting is: (dose: 12.5 mg/kg/injection, schedule: Q01DX001 (ip), vehicle: saline with Tween-80) 110 % of control; (dose: 25.0 mg/kg/injection, schedule: Q01DX001 (ip), vehicle: saline with Tween-80) 105 % of control; under setting [8], 110 % of control.
Regarding `COC(=O)C12Oc3ccc(-c4ccc5c(c4O)C(=O)C4=CCC(C)C(O)C4(C(=O)OC)O5)c(O)c3C(=O)C1=CCC(C)C2O` (stereo unspecified), the T/C is 91 % of control (dose: 2.5 mg/kg/injection, schedule: Q01DX009 (ip), vehicle: saline with Tween-80); 95 % of control (dose: 5.0 mg/kg/injection, schedule: Q01DX009 (ip), vehicle: saline with Tween-80); 88 % of control (dose: 10.0 mg/kg/injection, schedule: Q01DX009 (ip), vehicle: saline with Tween-80).
As to `CCCCCOn1nnc2ccccc21`, the T/C was 101 % of control (dose: 100.0 mg/kg/injection, schedule: Q04DX003 (ip), vehicle: saline with Tween-80); 101 % of control (dose: 200.0 mg/kg/injection, schedule: Q04DX003 (ip), vehicle: saline with Tween-80); 101 % of control (dose: 400.0 mg/kg/injection, schedule: Q04DX003 (ip), vehicle: saline with Tween-80).
Take `OCCN1CCN(CCCN2c3cc(Cl)ccc3Sc3sccc32)CC1`: the T/C is, setting by setting: (dose: 50.0 mg/kg/injection, schedule: Q01DX005 (ip), vehicle: Klucel (hydroxypropylcellulose) (HPC)) 92 % of control; (dose: 50.0 mg/kg/injection, schedule: Q01DX005 (ip), vehicle: saline) 100 % of control; (dose: 100.0 mg/kg/injection, schedule: Q01DX005 (ip), vehicle: Klucel (hydroxypropylcellulose) (HPC)) 90 % of control; (dose: 100.0 mg/kg/injection, schedule: Q01DX005 (ip), vehicle: saline) 106 % of control.
For the compound `CC1(C)CC(=O)N(CN2CCCCC2)C(=O)C1`, the T/C was 114 % of control (dose: 100.0 mg/kg/injection, schedule: Q04DX002 (ip), vehicle: Klucel (hydroxypropylcellulose) (HPC)) and 120 % of control (dose: 200.0 mg/kg/injection, schedule: Q04DX002 (ip), vehicle: Klucel (hydroxypropylcellulose) (HPC)).
Take `Cc1cccc(C(=O)NN)c1O`: the T/C is 98 % of control (dose: 12.5 mg/kg/injection, schedule: Q01DX009 (ip), vehicle: saline with Tween-80); 104 % of control under setting [1]; 104 % of control under setting [3]; 101 % of control under setting [5].
With `Cc1c2c[n+](CCCCCCCC[n+]3ccc4c(C)c5c(c(C)c4c3)c3ccccc3n5CCO)ccc2c(C)c2c1c1ccccc1n2CCO`, the T/C was 154 % of control (dose: 0.78 mg/kg/injection, schedule: Q04DX003 (ip), vehicle: distilled water + Tween-80); 155 % of control and 157 % of control (dose: 1.56 mg/kg/injection, schedule: Q04DX003 (ip), vehicle: distilled water + Tween-80); 155 % of control and 158 % of control (dose: 6.25 mg/kg/injection, schedule: Q04DX003 (ip), vehicle: distilled water + Tween-80); 158 % of control and 184 % of control (dose: 12.5 mg/kg/injection, schedule: Q04DX003 (ip), vehicle: distilled water + Tween-80); 184 % of control (dose: 25.0 mg/kg/injection, schedule: Q04DX003 (ip), vehicle: distilled water + Tween-80); 87 % of control (dose: 50.0 mg/kg/injection, schedule: Q04DX003 (ip), vehicle: distilled water + Tween-80).
In the case of `COc1cc2c(cc1Br)C(=O)C(Br)(Br)CCC2Br` (stereo unspecified), the T/C is 118 % of control under setting [2]; 118 % of control under setting [4]; 114 % of control (dose: 200.0 mg/kg/injection, schedule: Q01DX009 (ip), vehicle: Klucel (hydroxypropylcellulose) (HPC)).
In the case of `O=C(O)Cn1/c(=N\N=C\c2ccccc2)sc2ccccc21`, the T/C was 101 % of control under setting [9], 91 % of control under setting [10] and 93 % of control under setting [11].
`CC(=O)N(C)OS(C)(=O)=O`: the T/C by setting is: under setting [8], 108 % of control; under setting [12], 101 % of control; under setting [9], 100 % of control; under setting [13], 103 % of control; under setting [10], 104 % of control; under setting [14], 106 % of control. In addition, the T/C under setting [11] is 104 % of control.
As for `COC(=O)C(CSCc1ccccc1)NC(=O)CCNC(C)=O` (stereo unspecified), the T/C was 97 % of control (dose: 12.5 mg/kg/injection, schedule: Q01DX009 (ip), vehicle: distilled water + Tween-80); 100 % of control (dose: 25.0 mg/kg/injection, schedule: Q01DX009 (ip), vehicle: distilled water + Tween-80); 91 % of control (dose: 50.0 mg/kg/injection, schedule: Q01DX009 (ip), vehicle: distilled water + Tween-80); 92 % of control (dose: 100.0 mg/kg/injection, schedule: Q01DX009 (ip), vehicle: distilled water + Tween-80); 91 % of control (dose: 200.0 mg/kg/injection, schedule: Q01DX009 (ip), vehicle: distilled water + Tween-80).
For the compound `CC(C)(C)OC(=O)NC(Cc1ccc(OCc2ccccc2)cc1)C(=O)O` (stereo unspecified), the T/C is 104 % of control under setting [12], 106 % of control under setting [13] and 97 % of control under setting [14].
In the case of `COC(=O)C/C(C)=N/SC(c1ccccc1)(c1ccccc1)c1ccccc1`, the T/C under setting [6] is 95 % of control; the T/C under setting [7] was 101 % of control; the T/C (dose: 400.0 mg/kg/injection, schedule: Q04DX002 (ip), vehicle: saline with Tween-80) is 94 % of control.
For the compound `COc1ccc2c(c1)OC(C)(C)[C@H](c1ccc(O)cc1)[C@@H]2c1ccccc1`, the T/C by setting is: (dose: 60.0 mg/kg/injection, schedule: Q01DX005 (ip), vehicle: saline with Tween-80) 90 % of control; (dose: 120.0 mg/kg/injection, schedule: Q01DX005 (ip), vehicle: saline with Tween-80) 90 % of control.
On to `CN(C)c1ccc(N=Cc2cc[n+](C)cc2)cc1`, for which the T/C is 114 % of control (dose: 6.25 mg/kg/injection, schedule: Q01DX009 (ip), vehicle: saline); 101 % of control (dose: 12.5 mg/kg/injection, schedule: Q01DX009 (ip), vehicle: saline); 105 % of control (dose: 25.0 mg/kg/injection, schedule: Q01DX009 (ip), vehicle: saline); 100 % of control (dose: 25.0 mg/kg/injection, schedule: Q04DX003 (ip), vehicle: saline); 111 % of control (dose: 50.0 mg/kg/injection, schedule: Q01DX009 (ip), vehicle: saline); 107 % of control (dose: 50.0 mg/kg/injection, schedule: Q04DX003 (ip), vehicle: saline). Further, the T/C (dose: 100.0 mg/kg/injection, schedule: Q04DX003 (ip), vehicle: saline) was 107 % of control.
